The experiment deals with T1, human KDR (Homo sapiens, UniProt P35968).
T1 construct: cloning the cytoplasmic domain of the KDR kinase as an in frame fusion at the carboxy terminus of the GST gene; made in house; host or cells: Spodoptera frugiperda (Sf21) insect cells, baculovirus vector pAcG2T
The experiment is described as follows: VEGF receptor kinase assay. The format is biochemical.

T1 sequence (P35968 786-1356 limits assumed): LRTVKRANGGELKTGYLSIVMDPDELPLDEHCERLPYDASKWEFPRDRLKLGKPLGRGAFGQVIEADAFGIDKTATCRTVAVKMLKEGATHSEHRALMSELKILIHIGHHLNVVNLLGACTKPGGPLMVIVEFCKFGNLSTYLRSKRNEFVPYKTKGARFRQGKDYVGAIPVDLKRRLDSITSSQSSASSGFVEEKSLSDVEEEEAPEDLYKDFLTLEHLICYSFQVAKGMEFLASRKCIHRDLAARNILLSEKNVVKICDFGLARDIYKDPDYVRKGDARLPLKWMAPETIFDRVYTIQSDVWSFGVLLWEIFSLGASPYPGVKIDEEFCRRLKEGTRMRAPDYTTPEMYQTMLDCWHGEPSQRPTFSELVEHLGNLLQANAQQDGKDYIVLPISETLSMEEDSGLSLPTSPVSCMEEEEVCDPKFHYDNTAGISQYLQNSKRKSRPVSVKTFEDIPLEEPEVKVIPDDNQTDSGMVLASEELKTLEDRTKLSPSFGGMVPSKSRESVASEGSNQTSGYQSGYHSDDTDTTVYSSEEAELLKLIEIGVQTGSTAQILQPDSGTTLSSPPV
Procedure: I. VEGF Receptor Kinase Assay
VEGF receptor kinase activity is measured by incorporation of radio-labeled phosphate into polyglutamic acid, tyrosine, 4:1 (pEY) substrate. The phosphorylated pEY product is trapped onto a filter membrane and the incorporation of radio-labeled phosphate quantified by scintillation counting.
VEGF Receptor Kinase The intracellular tyrosine kinase domains of human KDR (Terman, B. I. et al. Oncogene (1991) vol. 6, pp. 1677-1683.) and Flt-1 (Shibuya, M. et al. Oncogene (1990) vol. 5, pp. 519-524) were cloned as glutathione S-transferase (GST) gene fusion proteins. This was accomplished by cloning the cytoplasmic domain of the KDR kinase as an in frame fusion at the carboxy terminus of the GST gene. Soluble recombinant GST-kinase domain fusion proteins were expressed in Spodoptera frugiperda (Sf21) insect cells (Invitrogen) using a baculovirus expression vector (pAcG2T, Pharmingen). […]

On to `CNC(=O)N1CCN(Cc2ccnc(Nc3ncc(C#N)s3)c2)CC1` [Compound 4-4, 4-[2-(5-cyano-thiazol-2-ylamino)-pyridin-4-ylmethyl]-piperazine-1-carboxylic acid methylamide], for which the kinase inhibitory activity result is listed as “inhibits the kinase KDR”.

(Values after patent publication US6872724B2, “Polymorphs with tyrosine kinase activity” (Merck & Co., Inc., priority 2002, dated 2005).)
